Six substances from patent publication US11987645B2, “Peptide for treating rheumatoid arthritis and use thereof” (SEOUL NATIONAL UNIVERSITY R&DB FOUNDATION, priority 2018, dated 2024) can be followed below.

The test system of experiment [1] is peripheral blood cells derived from rheumatoid arthritis patients. In words: Example 3-1: inflammatory cytokine secretion in peripheral blood cells derived from rheumatoid arthritis patients. The conditions noted are these: FIG. 10; for secretion level of IL-1β / secretion level of IL-6 / secretion level of TNF-α: peripheral blood cells of rheumatoid arthritis patients, control NBP. It is filed as cell-based, human. On the procedure:
After peripheral blood cells derived from rheumatoid arthritis patients were treated with apoB100 #1, apoB100 #3, and apoB100 #5, changes in the secretion of IL-1β, IL-6 and TNF-α were identified. A non-binding peptide treated group (NBP) was determined as the control group.

Experiment [2] has as its system K/B×N rheumatoid arthritis animal model. In words: Example 3-2: K/B×N rheumatoid arthritis animal model (K/B×N serum transfer arthritis mouse). It is filed as in vivo. The conditions noted are these: subcutaneous injection to the affected region; K/B×N serum and apoB induced; FIG. 11. The text has this:
K/B×N rheumatoid arthritis animal model (K/B×N serum transfer arthritis mouse) was established by inducing moderate rheumatoid arthritis by administering K/B×N serum and apoB to the mouse, and peptides for inhibiting the secretion of inflammatory cytokine were subcutaneously injected to the affected region of the animal model. Afterwards, changes in the ankle thickness and arthritis score resulting after peptide injection were identified. In addition, under the same conditions as described above, changes in the synovial inflammation, bone erosion, cartilage damage and leukocyte infiltration were compared. Meanwhile, groups treated with K/B×N serum and apoB only were determined as control groups, and groups treated with K/B×N serum and apoB, and a non-binding peptide treated group (NBP) were determined as comparison groups.

The subject of experiment [3] is peripheral blood mononuclear cells obtained from rheumatoid arthritis patients. In words: Inflammatory cytokine secretion after treating peripheral blood mononuclear cells of rheumatoid arthritis patients with apoB100-derived peptides #1 to #5. It is filed as cell-based, human. The conditions noted are these: PBMC of rheumatoid arthritis patients; control non-binding peptide (NBP); FIG. 8. On the procedure:
Thereafter, peripheral blood mononuclear cells obtained from the healthy control and rheumatoid arthritis patients were treated with the peptides #1 to #5 (which are named apoB100 #1, apo100 #2, apoB100 #3, apoB100 #4, and apoB100 #5, respectively), and changes in the secretion of IL-1β, IL-6 and TNF-α were compared. Meanwhile, a non-binding peptide treated group (NBP) was determined as the control group, and the results of this example are indicated as the mean values of the secretion levels for each six of rheumatoid arthritis patients and healthy individuals.

In the next experiment the target is ENO1 (α-enolase) (Homo sapiens, UniProt P06733). In words: ENO1-apoB100 binding by immunoblotting, confocal microscopy, BIACORE system and ELISA assay. The conditions noted are these: ELISA, FIG. 3. On the technique in general: A western blot detects proteins with antibodies after separation by electrophoresis.
Chain of ENO1 (α-enolase) (P06733 whole entry): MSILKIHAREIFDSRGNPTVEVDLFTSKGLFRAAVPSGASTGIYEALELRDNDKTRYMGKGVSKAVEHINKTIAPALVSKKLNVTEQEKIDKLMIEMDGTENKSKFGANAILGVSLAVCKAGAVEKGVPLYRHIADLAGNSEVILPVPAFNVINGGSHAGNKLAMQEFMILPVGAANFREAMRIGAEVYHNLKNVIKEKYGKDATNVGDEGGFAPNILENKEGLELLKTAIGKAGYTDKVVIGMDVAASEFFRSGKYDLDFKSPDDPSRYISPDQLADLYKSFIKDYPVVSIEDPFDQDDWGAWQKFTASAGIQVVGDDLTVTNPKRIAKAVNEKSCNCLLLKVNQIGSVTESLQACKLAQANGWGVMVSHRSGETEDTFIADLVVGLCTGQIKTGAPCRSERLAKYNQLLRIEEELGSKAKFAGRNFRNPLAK
Experiment [4] concerns peripheral blood mononuclear cells isolated from rheumatoid arthritis patients. In words: Inflammatory cytokine secretion after treating peripheral blood mononuclear cells of rheumatoid arthritis patients with apoB100. It is filed as cell-based, human. The text has this: In this example, in order to identify the relation between rheumatoid arthritis and ENO1 expression on peripheral blood mononuclear cells, the ENO1 expression thereof was observed. In addition, it was attempted to identify the effect of binding ENO1 (α-enolase) to apolipoprotein B100 (apoB100) isolated from a rheumatoid arthritis patient and selected as an ENO1 (α-enolase) binding ligand on the secretion of inflammatory cytokine in the peripheral blood of the rheumatoid arthritis patient through proteomic analysis using immunoprecipitation (IP)/mass spectroscopy (MS). In detail, after ENO1 immunoblotting was performed on mononuclear cells obtained from the rheumatoid arthritis patient and peripheral blood mononuclear cells were treated with apoB100, changes in the secretion of IL-1β, IL-6 and TNF-α were compared. Meanwhile, a group in which cells isolated from healthy individuals are used (HC: healthy control) was determined as the control group.
Accordingly, in this example, it was additionally verified whether the binding of ENO1 and apoB100 crucially affected inflammation responses due to rheumatoid arthritis. […] In addition, since LDL existing in vivo in a state in which it binds to apoB100 protein may potentially involve the inflammation responses, LDLR knockout mouse and C57BL/6 wild-type mouse control group were treated with the serum of K/B×N mouse (referred to as K/B×N serum, hereinafter) and ApoB100, and resulting changes in vivo were compared. Meanwhile, addition of K/B×N mouse serum functions to induce rheumatoid arthritis through deposition of autoantibodies existing in the K/B×N serum, and is one of conventional techniques for manufacturing rheumatoid arthritis animal models by autoimmune responses.

[5] abbreviates: RA patient mononuclear cells treated with apoB100, compared to healthy control group, FIG. 2.

Consider TKKMGLAFESTK (peptide #5) [apoB100 #5], for which, in experiment [1], the “secretion level of IL-1β” value is “significantly decreased”, the “secretion level of IL-6” value is given as “significantly decreased” and the “secretion level of TNF-α” value is listed as “significantly decreased”. In addition, in experiment [2], the ankle thickness entry is given as “significantly decreased” and the arthritis score result is “significantly decreased”. Moreover, in experiment [3], the “secretion level of IL-1β” value is “decreased”, the “secretion level of IL-6” value was “decreased” and the “secretion level of TNF-α” value was “decreased”.

CKEQHLFLPFSY (peptide #2) [apoB100 #2]: in experiment [3], the “secretion level of IL-1β” value is listed as “markedly increased”, the “secretion level of IL-6” value was “markedly increased” and the “secretion level of TNF-α” value is “markedly increased”.

On to apolipoprotein B100 [apoB100], for which the ENO1-apoB100 binding result with ENO1 (α-enolase) is listed as “relatively strong binding”. For the same substance, in experiment [4] (ENO1 expression of PBMC inhibited with ENO1 siRNA, then apoB100 treatment, FIG. 4), the “secretion level of inflammatory cytokines” value is on record as “an increased secretion level of inflammatory cytokines was not observed”. Besides, in experiment [4] (setting [5]), the “secretion level of IL-1β” value is “markedly increased”, the “secretion level of IL-6” value was “markedly increased” and the “secretion level of TNF-α” value is recorded as “markedly increased”.

For the substance SYKNKYGMVAQV (peptide #3) [apoB100 #3], the “treatment efficacy (decrease of cytokine secretion) compared among the peptides” value in experiment [1] (among apoB100 #1, #3 and #5) is reported as “highest”. Moreover, in experiment [1], the “secretion level of IL-1β” value is listed as “significantly decreased”, the “secretion level of IL-6” value was “significantly decreased” and the “secretion level of TNF-α” value is listed as “significantly decreased”. Also, in experiment [2], the ankle thickness entry is “significantly decreased” and the arthritis score result is recorded as “significantly decreased”. Moreover, in experiment [3], the “secretion level of IL-1β” value is “decreased”, the “secretion level of IL-6” value was “decreased” and the “secretion level of TNF-α” value is recorded as “decreased”.

For AICKEQHLFLPF (peptide #1) [apoB100 #1], in experiment [1], the “secretion level of IL-1β” value is “significantly decreased”, the “secretion level of IL-6” value is “significantly decreased” and the “secretion level of TNF-α” value is recorded as “significantly decreased”. In experiment [2], the ankle thickness entry is “significantly decreased” and the arthritis score result is given as “significantly decreased”. In addition, in experiment [3], the “secretion level of IL-1β” value is on record as “decreased”, the “secretion level of IL-6” value is “decreased” and the “secretion level of TNF-α” value is recorded as “decreased”.

As to KNKYGMVAQVTQ (peptide #4) [apoB100 #4], in experiment [3], the “secretion level of IL-1β” value is reported as “markedly increased”, the “secretion level of IL-6” value is “markedly increased” and the “secretion level of TNF-α” value was “markedly increased”.
